From patent US20230181614A1, “ADMINISTRATION OF CITICOLINE TO IMPROVE COGNITIVE PERFORMANCE, ATTENTIONAL PERFORMANCE, AND MOTOR FUNCTION” (KYOWA HAKKO BIO CO., LTD., priority 2014, published 2023)

System: Healthy subjects, ages 13-18
Assay: General Questionnaire
Assay type: in vivo, human
Conditions: 250 mg/day
Excerpt: Study participants were screened by telephone prior to study enrollment. Healthy subjects, ages 13-18, with no significant medical conditions and no history of co-morbid psychiatric disorder, current Axis I or II diagnosis, or previous participation in a pharmacotherapeutic trial, were selected. Use of any psychotropic medication or any previous head injury resulting in loss of consciousness for 5 or more minutes were used as exclusion criteria. While no participant met criteria for a neuropsychiatric disorder at enrollment, clinical assessments were still completed throughout the study to evaluate changes in mood state. In addition, self-reports of sleep habits, lifestyle, and exercise routines were also administered at baseline as well as at each study visit to assess changes in health habits during study participation. Following the completion of Visit 1 assessment, participants were given their 28-day supply of citicoline (250 mg or 500 mg) or placebo, which was randomly assigned. They were instructed to take one capsule a day every day for the next 28 days. Visit 2 occurred fourteen days after Visit 1. At Visit 2, the remaining study pills were counted and participant dosage calendars were checked to ensure compliance with the protocol. Additional neuropsychological measures and clinical assessments were administered during this visit. Participants returned for Visit 3 fourteen days later, on the 28th day of their study participation. The pill bottle and the dosage calendar were collected from each participant. Urine and blood were again obtained. Participants also participated in similar clinical and neuropsychological testing and clinical measures that were given during visit 1. The General Questionnaire and Exercise and Life Style Questionnaire are self-report questionnaires designed to assess a variety of symptoms, behaviors, and self-perceptions, including mood, complexion, exercise, food, and alcohol habits of each of the participants. The General Questionnaire was administered during each of the three study visits; the Exercise and Life Style Questionnaire was administered during each of the three study visits. The General Questionnaire included five summary categories (Vision, Depression, Attention, Sleep, and Complexion) each of which had multiple individual items. Within and between group analyses are reported below for each of the summary categories.

Q: For C[N+](C)(C)CCOP(=O)(O)OP(=O)([O-])OC[C@H]1O[C@@H](n2ccc(N)nc2=O)[C@H](O)[C@@H]1O [citicoline, Cytidine 5′-diphosphocholine], which “Attention Total V3-V1 Difference Mean” value is on record?
A: -5.58

Q: And the “Complexion Total V3-V1 Difference Mean” value?
A: -0.67

Q: And the “Depression Total V3-V1 Difference Mean” value?
A: -7.37

Q: And the “Sleep Total V3-V1 Difference Mean” value?
A: -5.59

Q: And the “Vision Total V3-V1 Difference Mean” value?
A: -2.26

Q: And the “Attention Total V3 Mean” value (Visit 3)?
A: 38.48

Q: And the “Complexion Total V3 Mean” value (Visit 3)?
A: 3.96

Q: And the “Depression Total V3 Mean” value (Visit 3)?
A: 21.04

Q: And the “Sleep Total V3 Mean” value (Visit 3)?
A: 18.96

Q: And the “Vision Total V3 Mean” value (Visit 3)?
A: 6.59

Q: And the “General Questionnaire Attention Q13, Mean” value (V1 (baseline))?
A: 3.52

Q: And the “General Questionnaire Attention Q14, Mean” value (V1 (baseline))?
A: 2.37

Q: And the “General Questionnaire Attention Q15, Mean” value (V1 (baseline))?
A: 3.89

Q: And the “General Questionnaire Attention Q16, Mean” value (V1 (baseline))?
A: 3.19

Q: And the “General Questionnaire Attention Q17, Mean” value (V1 (baseline))?
A: 3.30

Q: And the “General Questionnaire Attention Q18, Mean” value (V1 (baseline))?
A: 2.63

Q: What about the “General Questionnaire Attention Q19, Mean” value (V1 (baseline)) of the same compound?
A: 6.59

Q: What about the “General Questionnaire Attention Q20, Mean” value (V1 (baseline)) of the same compound?
A: 3.48

Q: And the “General Questionnaire Attention Q21, Mean” value (V1 (baseline))?
A: 3.22

Q: And the “General Questionnaire Attention Q22, Mean” value (V1 (baseline))?
A: 4.00

Q: What about the “General Questionnaire Attention Q23, Mean” value (V1 (baseline)) of the same compound?
A: 4.15

Q: And the “General Questionnaire Attention Q24, Mean” value (V1 (baseline))?
A: 3.67

Q: And the “General Questionnaire Attention Total, Mean” value (V1 (baseline))?
A: 44.31

Q: What about the “General Questionnaire Complexion Q33, Mean” value (V1 (baseline)) of the same compound?
A: 2.78

Q: What about the “General Questionnaire Complexion Q34, Mean” value (V1 (baseline)) of the same compound?
A: 1.85

Q: What about the “General Questionnaire Complexion Total, Mean” value (V1 (baseline)) of the same compound?
A: 4.63

Q: And the “General Questionnaire Depression Q4, Mean” value (V1 (baseline))?
A: 2.59

Q: What about the “General Questionnaire Depression Q5, Mean” value (V1 (baseline)) of the same compound?
A: 3.26

Q: And the “General Questionnaire Depression Q6, Mean” value (V1 (baseline))?
A: 2.85

Q: What about the “General Questionnaire Depression Q7, Mean” value (V1 (baseline)) of the same compound?
A: 4.26

Q: What about the “General Questionnaire Depression Q8, Mean” value (V1 (baseline)) of the same compound?
A: 2.74

Q: And the “General Questionnaire Depression Q9, Mean” value (V1 (baseline))?
A: 3.74

Q: What about the “General Questionnaire Depression Q10, Mean” value (V1 (baseline)) of the same compound?
A: 2.85

Q: And the “General Questionnaire Depression Q11, Mean” value (V1 (baseline))?
A: 2.85

Q: And the “General Questionnaire Depression Q12, Mean” value (V1 (baseline))?
A: 3.26

Q: What about the “General Questionnaire Depression Total, Mean” value (V1 (baseline)) of the same compound?
A: 28.41

Q: And the “General Questionnaire Sleep Q25, Mean” value (V1 (baseline))?
A: 3.19

Q: And the “General Questionnaire Sleep Q26, Mean” value (V1 (baseline))?
A: 2.78

Q: What about the “General Questionnaire Sleep Q27, Mean” value (V1 (baseline)) of the same compound?
A: 3.26

Q: What about the “General Questionnaire Sleep Q28, Mean” value (V1 (baseline)) of the same compound?
A: 3.63

Q: And the “General Questionnaire Sleep Q29, Mean” value (V1 (baseline))?
A: 3.48

Q: And the “General Questionnaire Sleep Q30, Mean” value (V1 (baseline))?
A: 2.11

Q: And the “General Questionnaire Sleep Q31, Mean” value (V1 (baseline))?
A: 1.96

Q: What about the “General Questionnaire Sleep Q32, Mean” value (V1 (baseline)) of the same compound?
A: 4.15

Q: What about the “General Questionnaire Sleep Total, Mean” value (V1 (baseline)) of the same compound?
A: 24.56

Q: And the “General Questionnaire Vision Q1, Mean” value (V1 (baseline))?
A: 3.44

Q: What about the “General Questionnaire Vision Q2, Mean” value (V1 (baseline)) of the same compound?
A: 3.26

Q: What about the “General Questionnaire Vision Q3, Mean” value (V1 (baseline)) of the same compound?
A: 2.15

Q: And the “General Questionnaire Vision Total, Mean” value (V1 (baseline))?
A: 8.85

Q: What about the “General Questionnaire Attention Q13, Mean” value (V3 (day 28)) of the same compound?
A: 2.74

Q: What about the “General Questionnaire Attention Q14, Mean” value (V3 (day 28)) of the same compound?
A: 2.48

Q: What about the “General Questionnaire Attention Q15, Mean” value (V3 (day 28)) of the same compound?
A: 3.15

Q: And the “General Questionnaire Attention Q16, Mean” value (V3 (day 28))?
A: 2.63

Q: And the “General Questionnaire Attention Q17, Mean” value (V3 (day 28))?
A: 2.48

Q: And the “General Questionnaire Attention Q18, Mean” value (V3 (day 28))?
A: 2.26

Q: And the “General Questionnaire Attention Q19, Mean” value (V3 (day 28))?
A: 6.41

Q: What about the “General Questionnaire Attention Q20, Mean” value (V3 (day 28)) of the same compound?
A: 3.22

Q: And the “General Questionnaire Attention Q21, Mean” value (V3 (day 28))?
A: 3.15

Q: And the “General Questionnaire Attention Q22, Mean” value (V3 (day 28))?
A: 3.35

Q: What about the “General Questionnaire Attention Q23, Mean” value (V3 (day 28)) of the same compound?
A: 3.70

Q: What about the “General Questionnaire Attention Q24, Mean” value (V3 (day 28)) of the same compound?
A: 2.96

Q: And the “General Questionnaire Attention Total, Mean” value (V3 (day 28))?
A: 38.73

Q: And the “General Questionnaire Complexion Q33, Mean” value (V3 (day 28))?
A: 2.30

Q: What about the “General Questionnaire Complexion Q34, Mean” value (V3 (day 28)) of the same compound?
A: 1.67

Q: What about the “General Questionnaire Complexion Total, Mean” value (V3 (day 28)) of the same compound?
A: 3.96

Q: What about the “General Questionnaire Depression Q4, Mean” value (V3 (day 28)) of the same compound?
A: 1.81

Q: What about the “General Questionnaire Depression Q5, Mean” value (V3 (day 28)) of the same compound?
A: 2.30

Q: And the “General Questionnaire Depression Q6, Mean” value (V3 (day 28))?
A: 2.00

Q: What about the “General Questionnaire Depression Q7, Mean” value (V3 (day 28)) of the same compound?
A: 3.33

Q: And the “General Questionnaire Depression Q8, Mean” value (V3 (day 28))?
A: 1.81

Q: And the “General Questionnaire Depression Q9, Mean” value (V3 (day 28))?
A: 2.89

Q: What about the “General Questionnaire Depression Q10, Mean” value (V3 (day 28)) of the same compound?
A: 2.07

Q: And the “General Questionnaire Depression Q11, Mean” value (V3 (day 28))?
A: 2.15

Q: And the “General Questionnaire Depression Q12, Mean” value (V3 (day 28))?
A: 2.67

Q: And the “General Questionnaire Depression Total, Mean” value (V3 (day 28))?
A: 21.04

Q: And the “General Questionnaire Sleep Q25, Mean” value (V3 (day 28))?
A: 2.33

Q: What about the “General Questionnaire Sleep Q26, Mean” value (V3 (day 28)) of the same compound?
A: 2.15

Q: What about the “General Questionnaire Sleep Q27, Mean” value (V3 (day 28)) of the same compound?
A: 2.07

Q: And the “General Questionnaire Sleep Q28, Mean” value (V3 (day 28))?
A: 2.78

Q: And the “General Questionnaire Sleep Q29, Mean” value (V3 (day 28))?
A: 2.19

Q: What about the “General Questionnaire Sleep Q30, Mean” value (V3 (day 28)) of the same compound?
A: 1.96

Q: And the “General Questionnaire Sleep Q31, Mean” value (V3 (day 28))?
A: 1.93

Q: What about the “General Questionnaire Sleep Q32, Mean” value (V3 (day 28)) of the same compound?
A: 3.56

Q: What about the “General Questionnaire Sleep Total, Mean” value (V3 (day 28)) of the same compound?
A: 18.96

Q: What about the “General Questionnaire Vision Q1, Mean” value (V3 (day 28)) of the same compound?
A: 2.33
